According to ChEMBL document CHEMBL1201862, “PubChem BioAssay data set” (2004):
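These data come from cells grown in 96-well plates and exposed to compound for 48 hours at five concentrations. Abbreviation: GI50, concentration required for 50% inhibition of growth.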 Calls of active or inactive are those of the source. Rule as the data show it: active = GI50 up to about 1.1 µM and inactive = higher.

How the values were obtained:
Assay in all cases: growth of human tumour cells (NCI), 48 h
ACHN = tested on: ACHN
M19-MEL = tested on: M19-MEL
SK-MEL-2 = tested on: SK-MEL-2
SR = tested on: SR
SN12C = tested on: SN12C
M14 = tested on: M14
MOLT-4 = tested on: MOLT-4
OVCAR-3 = tested on: OVCAR-3
LOX IMVI = tested on: LOX IMVI
XF498 = tested on: XF498
OVCAR-4 = tested on: OVCAR-4
RXF 393 = tested on: RXF 393
NCI-H226 = tested on: NCI-H226
KM12 = tested on: KM12
NCI-H23 = tested on: NCI-H23
IGROV-1 = tested on: IGROV-1
SNB-78 = tested on: SNB-78
DLD-1 = tested on: DLD-1
OVCAR-5 = tested on: OVCAR-5
SF-539 = tested on: SF-539
UACC-257 = tested on: UACC-257
CCRF-CEM = tested on: CCRF-CEM
A498 = tested on: A498
DMS-114 = tested on: DMS-114
786-0 = tested on: 786-0
KM-20L2 = tested on: KM-20L2
OVCAR-8 = tested on: OVCAR-8
HOP-62 = tested on: HOP-62
SF-268 = tested on: SF-268
HL-60 = tested on: HL-60
HOP-92 = tested on: HOP-92
NCI-H460 = tested on: NCI-H460
Malme-3M = tested on: Malme-3M
SK-MEL-28 = tested on: SK-MEL-28
SNB-75 = tested on: SNB-75
HCT-116 = tested on: HCT-116
SK-OV-3 = tested on: SK-OV-3
COLO 205 = tested on: COLO 205
HT-29 = tested on: HT-29
SK-MEL-5 = tested on: SK-MEL-5
EKVX = tested on: EKVX
A549 = tested on: A549
LXFL 529 = tested on: LXFL 529
UACC-62 = tested on: UACC-62
U-251 = tested on: U-251
SW-620 = tested on: SW-620
HCC 2998 = tested on: HCC 2998
HOP-18 = tested on: HOP-18
SNB-19 = tested on: SNB-19
SF-295 = tested on: SF-295
CAKI-1 = tested on: CAKI-1
K562 = tested on: K562
NCI-H522 = tested on: NCI-H522
HCT-15 = tested on: HCT-15
TK-10 = tested on: TK-10
UO-31 = tested on: UO-31
RPMI-8226 = tested on: RPMI-8226
DMS-273 = tested on: DMS-273

With NNC(=S)N/N=C(/C(=O)Nc1cc(Cl)ccc1Cl)C1C(=O)Nc2ccccc2[S+]1[O-] (stereo not given) the GI50 (ACHN) was > 100 µM (inactive), the GI50 (M19-MEL) was > 100 µM (inactive) and the GI50 (SK-MEL-2) was > 100 µM (inactive). For the same molecule, the GI50 (SR) was 94.2 µM (inactive), the GI50 (SN12C) was > 100 µM (inactive) and the GI50 (M14) was > 100 µM (inactive). The GI50 (MOLT-4) was 78.9 µM (inactive), the GI50 (OVCAR-3) was > 100 µM (inactive) and the GI50 (LOX IMVI) was > 100 µM (inactive). For the same molecule, the GI50 (XF498) was > 100 µM (inactive), the GI50 (OVCAR-4) was > 100 µM (inactive) and the GI50 (RXF 393) was > 100 µM (inactive). The GI50 (NCI-H226) was > 100 µM (inactive), the GI50 (KM12) was > 100 µM (inactive) and the GI50 (NCI-H23) was > 100 µM (inactive). The GI50 (IGROV-1) was > 100 µM (inactive), the GI50 (SNB-78) was > 100 µM (inactive) and the GI50 (DLD-1) was > 100 µM (inactive). The GI50 (OVCAR-5) was > 100 µM (inactive), the GI50 (SF-539) was > 100 µM (inactive) and the GI50 (UACC-257) was > 100 µM (inactive). The GI50 (CCRF-CEM) was > 100 µM (inactive), the GI50 (A498) was > 100 µM (inactive) and the GI50 (DMS-114) was > 100 µM (inactive). For the same molecule, the GI50 (786-0) was > 100 µM (inactive), the GI50 (KM-20L2) was > 100 µM (inactive) and the GI50 (OVCAR-8) was > 100 µM (inactive). For the same molecule, the GI50 (HOP-62) was > 100 µM (inactive), the GI50 (SF-268) was > 100 µM (inactive) and the GI50 (HL-60) was > 100 µM (inactive). For the same molecule, the GI50 (HOP-92) was > 100 µM (inactive), the GI50 (NCI-H460) was > 100 µM (inactive) and the GI50 (Malme-3M) was > 100 µM (inactive). The GI50 (SK-MEL-28) was > 100 µM (inactive), the GI50 (SNB-75) was > 100 µM (inactive) and the GI50 (HCT-116) was > 100 µM (inactive). For the same molecule, the GI50 (SK-OV-3) was > 100 µM (inactive), the GI50 (COLO 205) was > 100 µM (inactive) and the GI50 (HT-29) was > 100 µM (inactive). The GI50 (SK-MEL-5) was > 100 µM (inactive), the GI50 (EKVX) was 55.1 µM (inactive) and the GI50 (A549) was 73.3 µM (inactive). The GI50 (LXFL 529) was > 100 µM (inactive), the GI50 (UACC-62) was > 100 µM (inactive) and the GI50 (U-251) was > 100 µM (inactive). The GI50 (SW-620) was > 100 µM (inactive), the GI50 (HCC 2998) was > 100 µM (inactive) and the GI50 (HOP-18) was > 100 µM (inactive). The GI50 (SNB-19) was > 100 µM (inactive), the GI50 (SF-295) was > 100 µM (inactive) and the GI50 (CAKI-1) was > 100 µM (inactive). For the same molecule, the GI50 (K562) was > 100 µM (inactive), the GI50 (NCI-H522) was 68.9 µM (inactive) and the GI50 (HCT-15) was over 100 µM. The GI50 (TK-10) was > 100 µM (inactive) and the GI50 (UO-31) was > 100 µM (inactive).

With C1OCC2S[C@@H]3COCO[C@@H]3C2O1 (stereo not given in full) the GI50 (ACHN) was > 100 µM (inactive), the GI50 (M19-MEL) was > 100 µM (inactive) and the GI50 (RPMI-8226) was > 100 µM (inactive). For the same molecule, the GI50 (SR) was > 100 µM (inactive), the GI50 (SN12C) was > 100 µM (inactive) and the GI50 (M14) was > 100 µM (inactive). For the same molecule, the GI50 (MOLT-4) was > 100 µM (inactive), the GI50 (OVCAR-3) was > 100 µM (inactive) and the GI50 (LOX IMVI) was > 100 µM (inactive). The GI50 (XF498) was > 100 µM (inactive), the GI50 (OVCAR-4) was > 100 µM (inactive) and the GI50 (RXF 393) was > 100 µM (inactive). The GI50 (NCI-H226) was > 100 µM (inactive), the GI50 (KM12) was > 100 µM (inactive) and the GI50 (NCI-H23) was > 100 µM (inactive). For the same molecule, the GI50 (SNB-78) was > 100 µM (inactive), the GI50 (DLD-1) was > 100 µM (inactive) and the GI50 (OVCAR-5) was > 100 µM (inactive). For the same molecule, the GI50 (DMS-273) was > 100 µM (inactive), the GI50 (SF-539) was > 100 µM (inactive) and the GI50 (UACC-257) was > 100 µM (inactive). The GI50 (CCRF-CEM) was > 100 µM (inactive), the GI50 (A498) was > 100 µM (inactive) and the GI50 (DMS-114) was > 100 µM (inactive). The GI50 (786-0) was > 100 µM (inactive), the GI50 (KM-20L2) was > 100 µM (inactive) and the GI50 (OVCAR-8) was > 100 µM (inactive). The GI50 (HOP-62) was > 100 µM (inactive), the GI50 (SF-268) was > 100 µM (inactive) and the GI50 (HL-60) was > 100 µM (inactive). The GI50 (NCI-H460) was > 100 µM (inactive), the GI50 (Malme-3M) was > 100 µM (inactive) and the GI50 (SK-MEL-28) was > 100 µM (inactive). The GI50 (SNB-75) was > 100 µM (inactive), the GI50 (HCT-116) was > 100 µM (inactive) and the GI50 (SK-OV-3) was > 100 µM (inactive). The GI50 (COLO 205) was > 100 µM (inactive), the GI50 (HT-29) was > 100 µM (inactive) and the GI50 (SK-MEL-5) was > 100 µM (inactive). The GI50 (EKVX) was > 100 µM (inactive), the GI50 (A549) was > 100 µM (inactive) and the GI50 (LXFL 529) was > 100 µM (inactive). For the same molecule, the GI50 (UACC-62) was > 100 µM (inactive), the GI50 (U-251) was > 100 µM (inactive) and the GI50 (HCC 2998) was > 100 µM (inactive). For the same molecule, the GI50 (SNB-19) was > 100 µM (inactive), the GI50 (SF-295) was > 100 µM (inactive) and the GI50 (CAKI-1) was > 100 µM (inactive). For the same molecule, the GI50 (K562) was > 100 µM (inactive), the GI50 (NCI-H522) was > 100 µM (inactive) and the GI50 (HCT-15) was over 100 µM. For the same molecule, the GI50 (TK-10) was > 100 µM (inactive) and the GI50 (UO-31) was > 100 µM (inactive).

For Cn1cc(C(=O)c2ccccc2)ccc1=O, the GI50 (ACHN) was > 100 µM (inactive), the GI50 (M19-MEL) was > 100 µM (inactive) and the GI50 (RPMI-8226) was > 100 µM (inactive). For the same molecule, the GI50 (SK-MEL-2) was > 100 µM (inactive), the GI50 (SR) was > 100 µM (inactive) and the GI50 (SN12C) was > 100 µM (inactive). For the same molecule, the GI50 (M14) was > 100 µM (inactive), the GI50 (MOLT-4) was > 100 µM (inactive) and the GI50 (OVCAR-3) was > 100 µM (inactive). For the same molecule, the GI50 (LOX IMVI) was > 100 µM (inactive), the GI50 (XF498) was > 100 µM (inactive) and the GI50 (OVCAR-4) was > 100 µM (inactive). For the same molecule, the GI50 (RXF 393) was > 100 µM (inactive), the GI50 (NCI-H226) was > 100 µM (inactive) and the GI50 (KM12) was > 100 µM (inactive). The GI50 (NCI-H23) was > 100 µM (inactive), the GI50 (IGROV-1) was > 100 µM (inactive) and the GI50 (SNB-78) was > 100 µM (inactive). The GI50 (DLD-1) was > 100 µM (inactive), the GI50 (OVCAR-5) was > 100 µM (inactive) and the GI50 (DMS-273) was > 100 µM (inactive). The GI50 (SF-539) was > 100 µM (inactive), the GI50 (UACC-257) was > 100 µM (inactive) and the GI50 (CCRF-CEM) was > 100 µM (inactive). The GI50 (DMS-114) was > 100 µM (inactive), the GI50 (786-0) was > 100 µM (inactive) and the GI50 (KM-20L2) was > 100 µM (inactive). For the same molecule, the GI50 (OVCAR-8) was > 100 µM (inactive), the GI50 (HOP-62) was > 100 µM (inactive) and the GI50 (SF-268) was > 100 µM (inactive). The GI50 (HL-60) was > 100 µM (inactive), the GI50 (HOP-92) was > 100 µM (inactive) and the GI50 (NCI-H460) was > 100 µM (inactive). For the same molecule, the GI50 (Malme-3M) was > 100 µM (inactive), the GI50 (SK-MEL-28) was > 100 µM (inactive) and the GI50 (SNB-75) was > 100 µM (inactive). The GI50 (HCT-116) was > 100 µM (inactive), the GI50 (SK-OV-3) was > 100 µM (inactive) and the GI50 (COLO 205) was > 100 µM (inactive). The GI50 (HT-29) was > 100 µM (inactive), the GI50 (SK-MEL-5) was > 100 µM (inactive) and the GI50 (EKVX) was > 100 µM (inactive). The GI50 (A549) was > 100 µM (inactive), the GI50 (LXFL 529) was > 100 µM (inactive) and the GI50 (UACC-62) was > 100 µM (inactive). The GI50 (U-251) was > 100 µM (inactive), the GI50 (SW-620) was > 100 µM (inactive) and the GI50 (HCC 2998) was > 100 µM (inactive). The GI50 (SNB-19) was > 100 µM (inactive), the GI50 (SF-295) was > 100 µM (inactive) and the GI50 (CAKI-1) was > 100 µM (inactive). The GI50 (K562) was > 100 µM (inactive), the GI50 (NCI-H522) was > 100 µM (inactive) and the GI50 (HCT-15) was over 100 µM. For the same molecule, the GI50 (TK-10) was > 100 µM (inactive) and the GI50 (UO-31) was > 100 µM (inactive).
